Measurements taken from the supplement of paper PMC11208160.

Experiment: recombinant UMI read abundance after kanamycin selection (control-corrected) (log10(CPM+1)); higher = more efficient recombination; extreme values may be limits of the assay; sequences stand for … in AGTGCAGAGAAAATCGGCCAGTTTTCTCTGCCTGCAGTCCGCATGCCGTGGGACCCCTTGGGTTCTAACCTGTTGCCTAGATTTATGCAGCGGACTGCCTTTCTCCCAAAGTGATAAACCGG…AGGTTGGTTTCACT; site = the 11-nt donor
Procedure, shortened: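 Two replicates each of selected and unselected plating were used in this pooled Escherichia coli screen of donor and donor-binding-loop pairs for the IS621 bridge recombinase. Selection was with IPTG (0.07 mM) and kanamycin. Counts of recombinant UMIs, amplified across the donor–target junction, were converted to CPM, averaged, scaled by control-derived factors and reported as log10(CPM+1).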
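Also: IS621 bridge recombinase in Escherichia coli cells against a fixed T5 target plasmid.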

Sequence	recombinant UMI read abundance (log10)
CGTTTGGCATGGACCGGTTTTCCCGGTAATCCGTATTTGCT (site CTTTTGGCTAG)	0
CGATCGTCATGGACCGGTTTTCCCGGTAATCCGTATTTGCC (site CGATCGTCTGG)	1.05
ATACATCCATGGACCGGTTTTCCCGGTAATCCGTATTTGAC (site ATACATCCTGT)	1.12
CACTTCTCATGGACCGGTTTTCCCGGTAATCCGTATTTGGG (site CCCTTCTCTCC)	0.00683
ACAGCTACATGGACCGGTTTTCCCGGTAATCCGTATTTGTG (site ACACCTACTCA)	0.156
CGATCATCATGGACCGGTTTTCCCGGTAATCCGTATTTGCT (site CAATCATCTAT)	0
GGGAAGACATGGACCGGTTTTCCCGGTAATCCGTATTTGCT (site AGGAAGACTTG)	0
TAAAATCCATGGACCGGTTTTCCCGGTAATCCGTATTTGTA (site TAAAATCCTTA)	0
GCATGCCCATGGACCGGTTTTCCCGGTAATCCGTATTTGAT (site GCGTGCCCTAT)	0.0164
AGGTTCCCATGGACCGGTTTTCCCGGTAATCCGTATTTGCG (site AGGTTCCCTCC)	0.0204
CCCCTCTCATGGACCGGTTTTCCCGGTAATCCGTATTTGGG (site CCCCTCTCTCC)	0.0198
CCATGATCATGGACCGGTTTTCCCGGTAATCCGTATTTGAA (site CCATGATCTTT)	1.02
GCGTCAACATGGACCGGTTTTCCCGGTAATCCGTATTTGGT (site GCGTCAACTAC)	0.129
GCTTGCACATGGACCGGTTTTCCCGGTAATCCGTATTTGAT (site GCTTGCTCTAT)	0.396
CCCATGTCATGGACCGGTTTTCCCGGTAATCCGTATTTGTC (site CCCATTTCTGA)	0
ACCTAGACATGGACCGGTTTTCCCGGTAATCCGTATTTGGC (site ACCTAGACTTC)	0.00402
CTAATGACATGGACCGGTTTTCCCGGTAATCCGTATTTGAC (site CTAATGACTGT)	1.47
GTCAATCCATGGACCGGTTTTCCCGGTAATCCGTATTTGAA (site GTCAATCCTTT)	1.07
TAATGAGCATGGACCGGTTTTCCCGGTAATCCGTATTTGGG (site TAACGAGCTCC)	0.0128
AGGATGCCATGGACCGGTTTTCCCGGTAATCCGTATTTGCT (site AGGATGCCTAG)	0.721
ACATCTACATGGACCGGTTTTCCCGGTAATCCGTATTTGGG (site ACATCTACTCT)	0.0169
CGATCATCATGGACCGGTTTTCCCGGTAATCCGTATTTGCT (site CAATCATCTAG)	1.62
GATGGGACATGGACCGGTTTTCCCGGTAATCCGTATTTGAC (site GATCGGACTGT)	0.285
CCCCAGACATGGACCGGTTTTCCCGGTAATCCGTATTTGTA (site CCCCAAACTTA)	0.459
GGCCACCCATGGACCGGTTTTCCCGGTAATCCGTATTTGTG (site GGCCACCCTCA)	0.00742

Sequence	recombinant UMI read abundance (log10)
CGTTAGACATGGACCGGTTTTCCCGGTAATCCGTATTTGAG (site CGTAAGACTCT)	0
CGGGAGTCATGGACCGGTTTTCCCGGTAATCCGTATTTGCC (site AGGGAGTCTGG)	0
CAAGCCCCATGGACCGGTTTTCCCGGTAATCCGTATTTGCT (site CAAGCCCCTAG)	2.06
ACTATTGCATGGACCGGTTTTCCCGGTAATCCGTATTTGGT (site ACTACTGCTAC)	0.0131
GACAAACCATGGACCGGTTTTCCCGGTAATCCGTATTTGGT (site GACCAACCTAC)	0.00428
TGGACATCATGGACCGGTTTTCCCGGTAATCCGTATTTGCT (site AGGACATCTAG)	1.44
GGGGCACCATGGACCGGTTTTCCCGGTAATCCGTATTTGCT (site GGGGCACCTCG)	0.0126
ACTTAACCATGGACCGGTTTTCCCGGTAATCCGTATTTGCA (site ACTTAACCTTG)	0
CTAGCAGCATGGACCGGTTTTCCCGGTAATCCGTATTTGAC (site CTAGTATCTGT)	0
GCTACTGCATGGACCGGTTTTCCCGGTAATCCGTATTTGCC (site GCTCCTGCTGG)	0
GGCAATCCATGGACCGGTTTTCCCGGTAATCCGTATTTGAG (site GGCAATCCTGT)	0
ACGAGTGCATGGACCGGTTTTCCCGGTAATCCGTATTTGGT (site ACTAGTGCTAC)	1.22
ACACGACCATGGACCGGTTTTCCCGGTAATCCGTATTTGTC (site ACACGAGCTGA)	0
CCAGGACCATGGACCGGTTTTCCCGGTAATCCGTATTTGGG (site CCAGGACCTCC)	0.00761
ATTCCATCATGGACCGGTTTTCCCGGTAATCCGTATTTGGA (site ATTCCATCTTC)	0.345
GAATGGCCATGGACCGGTTTTCCCGGTAATCCGTATTTGCA (site GGATGGCCTTG)	0
CTAGTATCATGGACCGGTTTTCCCGGTAATCCGTATTTGCC (site CTAGTATCTGA)	2.78
CAAGCTGCATGGACCGGTTTTCCCGGTAATCCGTATTTGGG (site CAAGCTGCTCC)	0.0432
CATTCGTCATGGACCGGTTTTCCCGGTAATCCGTATTTGGC (site CATTCGTCTGC)	0.595
TAAGATGCATGGACCGGTTTTCCCGGTAATCCGTATTTGGG (site ATCCTCTCTGG)	0
CAAGCGCCATGGACCGGTTTTCCCGGTAATCCGTATTTGTG (site TAAGCGCCTCA)	0.0306
GAAGCGTCATGGACCGGTTTTCCCGGTAATCCGTATTTGTA (site GAAGCGTCTTA)	2.88
CCCTACTCATGGACCGGTTTTCCCGGTAATCCGTATTTGGG (site CCCTTCTCTCC)	0.00875
GGAGGACCATGGACCGGTTTTCCCGGTAATCCGTATTTGGG (site GGAGGACCTCC)	0.00471
TCACGAGCATGGACCGGTTTTCCCGGTAATCCGTATTTGCC (site TCACGAGCTGG)	0.952

Sequence	recombinant UMI read abundance (log10)
TATTCAACATGGACCGGTTTTCCCGGTAATCCGTATTTGCA (site GGGAACGCTAA)	0.00333
CGTTTGACATGGACCGGTTTTCCCGGTAATCCGTATTTGCT (site CGTTTGGCTAG)	1.12
GAAGTCGCATGGACCGGTTTTCCCGGTAATCCGTATTTGCG (site GAAGTCGCTCG)	0.562
AATGGGTCATGGACCGGTTTTCCCGGTAATCCGTATTTGAC (site AATGCGTCTGT)	0.826
CGCCGTTCATGGACCGGTTTTCCCGGTAATCCGTATTTGCT (site CGCCGTACTAG)	0
GCTACTGCATGGACCGGTTTTCCCGGTAATCCGTATTTGCC (site GCTACGGCTGG)	0
ACTATACCATGGACCGGTTTTCCCGGTAATCCGTATTTGTA (site ACTATACCTTA)	0.0158
CGGGATCCATGGACCGGTTTTCCCGGTAATCCGTATTTGTT (site CGGGATCCTAA)	0.85
TAACGTCCATGGACCGGTTTTCCCGGTAATCCGTATTTGTA (site TAAAGTCCTTA)	0.571
GATCCAACATGGACCGGTTTTCCCGGTAATCCGTATTTGTA (site GTTCCAACTTA)	0.0286
CGCAACCCATGGACCGGTTTTCCCGGTAATCCGTATTTGTT (site CGGAATCCTAA)	0
TTTGCTGCATGGACCGGTTTTCCCGGTAATCCGTATTTGTG (site TTGGCTGCTCA)	0.0177
GTAGCCGCATGGACCGGTTTTCCCGGTAATCCGTATTTGCG (site GTAGTCGCTCG)	0.781
GCATGGCCATGGACCGGTTTTCCCGGTAATCCGTATTTGCA (site GCATGGCCTTG)	0
AATGAGACATGGACCGGTTTTCCCGGTAATCCGTATTTGGT (site ACTGAGACTAC)	0.724
TACTAATCATGGACCGGTTTTCCCGGTAATCCGTATTTGGG (site TACTAATCTCC)	0.0128
GTTTGTTCATGGACCGGTTTTCCCGGTAATCCGTATTTGAT (site GTTTGTTCTAT)	0.167
CACTCCTCATGGACCGGTTTTCCCGGTAATCCGTATTTGGC (site CACTCCTCTGA)	0.526
CGCCGTTCATGGACCGGTTTTCCCGGTAATCCGTATTTGCT (site CGCCGTCCTAG)	0.00374
CTACTACCATGGACCGGTTTTCCCGGTAATCCGTATTTGGA (site CTACTACCTTC)	0.00874
CGATCATCATGGACCGGTTTTCCCGGTAATCCGTATTTGCT (site CGGTCTTCTAG)	0.0105
GTTAGAACATGGACCGGTTTTCCCGGTAATCCGTATTTGGC (site GTTAGAACTTC)	0
GTTAGACCATGGACCGGTTTTCCCGGTAATCCGTATTTGGC (site GTTAGAGCTGC)	0
AGCACAGCATGGACCGGTTTTCCCGGTAATCCGTATTTGGG (site AGCGCAGCTCC)	0.0219
GTTGTACCATGGACCGGTTTTCCCGGTAATCCGTATTTGGT (site GTTGTCCCTAC)	0.0245
